# Data published in patent US20240335382A1, “NANO- OR MICRO-EMULSION COMPOSITIONS AND METHODS OF USE THEREOF” (Nutraceutical Wellness, Inc., priority 2021, published 2024).
# System: skin of human subjects
# Test: Acute primary skin patch test, single 48-hour application
# Type: in vivo
# Conditions: positive control, 55 subjects completing study
# Method: To determine the primary (acute) irritation potential of a test material after a single application to the skin of human subjects for 48 hours.
# Test materials to be tested under occlusive conditions were placed on an 8-millimeter aluminum Finn Chamber® (Epitest Ltd. Oy, Tuusula, Finland) supported on Scanpor® Tape (Norgesplaster A/S, Kristiansand, Norway) or an 8-millimeter filter paper coated aluminum Finn Chamber® AQUA supported on a thin flexible transparent polyurethane rectangular film coated on one side with a medical grade acrylic adhesive, consistent with adhesive used in state-of-the-art hypoallergenic surgical tapes or a 7 mm IQ-ULTRA® closed cell system which is made of additive-free polyethylene plastic foam with a filter paper incorporated (It is supplied in units of 10 chambers on a hypoallergenic non woven adhesive tape; the width of the tape is 52 mm and the length is 118 mm) or other equivalents.
# Test materials to be tested under semi-occlusive conditions were placed on a test strip with a Rayon/Polypropylene pad or on a 7.5 mm filter paper disc affixed to a strip of hypoallergenic tape (Johnson & Johnson 1 inch First Aid Cloth Tape). […]
# Trained skin grading laboratory personnel removed the patch and evaluated the test sites.
# In the event of an adverse reaction, the area of erythema and edema is measured. […]
smiles,measurement,value
"CCCCCCCCCCCCOS(=O)(=O)[O-].[Na+] [2.0% Sodium Lauryl Sulfate Solution, Sodium Lauryl Sulfate]",subjects with a Grade 1 reaction,16 subjects
